Data: ChEMBL document CHEMBL1201862, “PubChem BioAssay data set” (2004)
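Cultured in 96-well plates, cells were exposed to test compound for 48 hours across five concentrations. GI50: concentration for 50% inhibition of growth.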 The source made the active and inactive calls. Rule as the data show it: active = GI50 up to about 1.1 µM and inactive = higher.

How the values were obtained:
Assay in all cases: DTP human tumour cell line panel, 48 h
786-0 = tested on: 786-0
A549 = tested on: A549
ACHN = tested on: ACHN
BT-549 = tested on: BT-549
CAKI-1 = tested on: CAKI-1
EKVX = tested on: EKVX
HCC 2998 = tested on: HCC 2998
HCT-116 = tested on: HCT-116
HCT-15 = tested on: HCT-15
HOP-62 = tested on: HOP-62
HT-29 = tested on: HT-29
Hs-578T = tested on: Hs-578T
IGROV-1 = tested on: IGROV-1
K562 = tested on: K562
KM12 = tested on: KM12
LOX IMVI = tested on: LOX IMVI
M14 = tested on: M14
MCF7 = tested on: MCF7
MDA-MB-231 = tested on: MDA-MB-231
MDA-MB-435 = tested on: MDA-MB-435
MDA-N = tested on: MDA-N
MOLT-4 = tested on: MOLT-4
Malme-3M = tested on: Malme-3M
NCI-H226 = tested on: NCI-H226
NCI-H23 = tested on: NCI-H23
NCI-H460 = tested on: NCI-H460
NCI-H522 = tested on: NCI-H522
NCI/ADR-RES = tested on: NCI/ADR-RES
OVCAR-3 = tested on: OVCAR-3
OVCAR-4 = tested on: OVCAR-4
OVCAR-5 = tested on: OVCAR-5
OVCAR-8 = tested on: OVCAR-8
PC-3 = tested on: PC-3
RPMI-8226 = tested on: RPMI-8226
RXF 393 = tested on: RXF 393
SF-268 = tested on: SF-268
SF-295 = tested on: SF-295
SF-539 = tested on: SF-539
SK-MEL-28 = tested on: SK-MEL-28
SK-MEL-2 = tested on: SK-MEL-2
SK-MEL-5 = tested on: SK-MEL-5
SK-OV-3 = tested on: SK-OV-3
SN12C = tested on: SN12C
SNB-19 = tested on: SNB-19
SNB-75 = tested on: SNB-75
SR = tested on: SR
SW-620 = tested on: SW-620
T47D = tested on: T47D
TK-10 = tested on: TK-10
U-251 = tested on: U-251
UACC-257 = tested on: UACC-257
UACC-62 = tested on: UACC-62
UO-31 = tested on: UO-31
A498 = tested on: A498
CCRF-CEM = tested on: CCRF-CEM
COLO 205 = tested on: COLO 205
HL-60 = tested on: HL-60
HOP-92 = tested on: HOP-92

`Cc1cc(S(=O)(=O)O)c(NC(=O)c2oc3cc(O)ccc3c(=O)c2C)cc1Cl` was tested, and the GI50 (786-0) was > 100 µM (inactive), the GI50 (A549) was > 100 µM (inactive) and the GI50 (ACHN) was > 100 µM (inactive). The GI50 (BT-549) was > 100 µM (inactive), the GI50 (CAKI-1) was > 100 µM (inactive) and the GI50 (EKVX) was > 100 µM (inactive). The GI50 (HCC 2998) was > 100 µM (inactive), the GI50 (HCT-116) was > 100 µM (inactive) and the GI50 (HCT-15) was greater than 100 µM. For the same compound, the GI50 (HOP-62) was > 100 µM (inactive), the GI50 (HT-29) was > 100 µM (inactive) and the GI50 (Hs-578T) was > 100 µM (inactive). For the same compound, the GI50 (IGROV-1) was > 100 µM (inactive), the GI50 (K562) was > 100 µM (inactive) and the GI50 (KM12) was > 100 µM (inactive). The GI50 (LOX IMVI) was > 100 µM (inactive), the GI50 (M14) was > 100 µM (inactive) and the GI50 (MCF7) was > 100 µM (inactive). For the same compound, the GI50 (MDA-MB-231) was > 100 µM (inactive), the GI50 (MDA-MB-435) was > 100 µM (inactive) and the GI50 (MDA-N) was > 100 µM (inactive). For the same compound, the GI50 (MOLT-4) was > 100 µM (inactive), the GI50 (Malme-3M) was > 100 µM (inactive) and the GI50 (NCI-H226) was > 100 µM (inactive). The GI50 (NCI-H23) was > 100 µM (inactive), the GI50 (NCI-H460) was > 100 µM (inactive) and the GI50 (NCI-H522) was > 100 µM (inactive). For the same compound, the GI50 (NCI/ADR-RES) was > 100 µM (inactive), the GI50 (OVCAR-3) was > 100 µM (inactive) and the GI50 (OVCAR-4) was > 100 µM (inactive). The GI50 (OVCAR-5) was > 100 µM (inactive), the GI50 (OVCAR-8) was > 100 µM (inactive) and the GI50 (PC-3) was > 100 µM (inactive). The GI50 (RPMI-8226) was > 100 µM (inactive), the GI50 (RXF 393) was > 100 µM (inactive) and the GI50 (SF-268) was > 100 µM (inactive). For the same compound, the GI50 (SF-295) was > 100 µM (inactive), the GI50 (SF-539) was > 100 µM (inactive) and the GI50 (SK-MEL-28) was > 100 µM (inactive). The GI50 (SK-MEL-2) was > 100 µM (inactive), the GI50 (SK-MEL-5) was > 100 µM (inactive) and the GI50 (SK-OV-3) was > 100 µM (inactive). For the same compound, the GI50 (SN12C) was > 100 µM (inactive), the GI50 (SNB-19) was > 100 µM (inactive) and the GI50 (SNB-75) was > 100 µM (inactive). The GI50 (SR) was > 10 µM (inactive), the GI50 (SW-620) was > 100 µM (inactive) and the GI50 (T47D) was > 100 µM (inactive). For the same compound, the GI50 (TK-10) was > 100 µM (inactive), the GI50 (U-251) was > 100 µM (inactive) and the GI50 (UACC-257) was > 100 µM (inactive). The GI50 (UACC-62) was > 100 µM (inactive) and the GI50 (UO-31) was > 100 µM (inactive).
For `O=C1CCCNn2c(nc3ncccc3c2=O)N1`, the GI50 (786-0) was > 100 µM (inactive), the GI50 (A498) was > 100 µM (inactive) and the GI50 (A549) was > 100 µM (inactive). For the same compound, the GI50 (ACHN) was > 100 µM (inactive), the GI50 (BT-549) was > 100 µM (inactive) and the GI50 (CAKI-1) was > 100 µM (inactive). The GI50 (CCRF-CEM) was > 100 µM (inactive), the GI50 (COLO 205) was > 100 µM (inactive) and the GI50 (EKVX) was > 100 µM (inactive). For the same compound, the GI50 (HCT-116) was > 100 µM (inactive), the GI50 (HCT-15) was greater than 100 µM and the GI50 (HL-60) was > 100 µM (inactive). The GI50 (HOP-62) was > 100 µM (inactive), the GI50 (HOP-92) was > 100 µM (inactive) and the GI50 (HT-29) was > 100 µM (inactive). The GI50 (Hs-578T) was > 100 µM (inactive), the GI50 (IGROV-1) was > 100 µM (inactive) and the GI50 (K562) was > 100 µM (inactive). For the same compound, the GI50 (KM12) was 78.7 µM (inactive), the GI50 (LOX IMVI) was > 100 µM (inactive) and the GI50 (M14) was > 100 µM (inactive). For the same compound, the GI50 (MCF7) was > 100 µM (inactive), the GI50 (MDA-MB-231) was > 100 µM (inactive) and the GI50 (MDA-MB-435) was > 100 µM (inactive). The GI50 (MDA-N) was > 100 µM (inactive), the GI50 (MOLT-4) was > 100 µM (inactive) and the GI50 (Malme-3M) was > 100 µM (inactive). The GI50 (NCI-H226) was > 100 µM (inactive), the GI50 (NCI-H23) was > 100 µM (inactive) and the GI50 (NCI-H460) was > 100 µM (inactive). For the same compound, the GI50 (NCI-H522) was > 100 µM (inactive), the GI50 (NCI/ADR-RES) was > 100 µM (inactive) and the GI50 (OVCAR-3) was > 100 µM (inactive). For the same compound, the GI50 (OVCAR-4) was > 100 µM (inactive), the GI50 (OVCAR-5) was > 100 µM (inactive) and the GI50 (OVCAR-8) was > 100 µM (inactive). The GI50 (PC-3) was > 100 µM (inactive), the GI50 (RPMI-8226) was > 100 µM (inactive) and the GI50 (RXF 393) was > 100 µM (inactive). The GI50 (SF-268) was > 100 µM (inactive), the GI50 (SF-295) was > 100 µM (inactive) and the GI50 (SF-539) was > 100 µM (inactive). The GI50 (SK-MEL-2) was > 100 µM (inactive), the GI50 (SK-MEL-5) was > 100 µM (inactive) and the GI50 (SK-OV-3) was > 100 µM (inactive). The GI50 (SNB-19) was > 100 µM (inactive), the GI50 (SNB-75) was 30.2 µM (inactive) and the GI50 (SW-620) was > 100 µM (inactive). The GI50 (T47D) was > 100 µM (inactive), the GI50 (TK-10) was > 100 µM (inactive) and the GI50 (U-251) was > 100 µM (inactive). The GI50 (UACC-257) was > 100 µM (inactive), the GI50 (UACC-62) was > 100 µM (inactive) and the GI50 (UO-31) was > 100 µM (inactive).
`Cc1ccc(C)c(NC(=O)/C(=N\N)C(c2cnc3ccc([N+](=O)[O-])cc3n2)[N+](=O)[O-])c1` (stereo not drawn) was tested, and the GI50 (786-0) was > 100 µM (inactive), the GI50 (A498) was 83.2 µM (inactive) and the GI50 (A549) was 92.7 µM (inactive). For the same compound, the GI50 (ACHN) was 14.5 µM (inactive), the GI50 (BT-549) was > 100 µM (inactive) and the GI50 (CAKI-1) was 39.4 µM (inactive). The GI50 (CCRF-CEM) was 4.99 µM (inactive), the GI50 (EKVX) was 43.3 µM (inactive) and the GI50 (HCC 2998) was 69.8 µM (inactive). The GI50 (HCT-116) was > 100 µM (inactive), the GI50 (HCT-15) was greater than 100 µM and the GI50 (HL-60) was 52 µM (inactive). For the same compound, the GI50 (HOP-62) was 40 µM (inactive), the GI50 (HOP-92) was > 100 µM (inactive) and the GI50 (HT-29) was 65.8 µM (inactive). For the same compound, the GI50 (Hs-578T) was 80.4 µM (inactive), the GI50 (IGROV-1) was 51.9 µM (inactive) and the GI50 (K562) was > 100 µM (inactive). For the same compound, the GI50 (KM12) was 47.9 µM (inactive), the GI50 (LOX IMVI) was 56.4 µM (inactive) and the GI50 (M14) was > 100 µM (inactive). For the same compound, the GI50 (MCF7) was 60.8 µM (inactive), the GI50 (MDA-MB-231) was 37.8 µM (inactive) and the GI50 (MDA-MB-435) was 62.5 µM (inactive). For the same compound, the GI50 (MDA-N) was > 100 µM (inactive), the GI50 (MOLT-4) was 54.5 µM (inactive) and the GI50 (Malme-3M) was 66.8 µM (inactive). The GI50 (NCI-H226) was > 100 µM (inactive), the GI50 (NCI-H23) was 70.8 µM (inactive) and the GI50 (NCI-H460) was 70.3 µM (inactive). For the same compound, the GI50 (NCI-H522) was 19.7 µM (inactive), the GI50 (NCI/ADR-RES) was 32.2 µM (inactive) and the GI50 (OVCAR-3) was 61.1 µM (inactive). The GI50 (OVCAR-4) was 18.4 µM (inactive), the GI50 (OVCAR-5) was > 100 µM (inactive) and the GI50 (OVCAR-8) was 37 µM (inactive). For the same compound, the GI50 (PC-3) was 50.7 µM (inactive), the GI50 (RPMI-8226) was 45.9 µM (inactive) and the GI50 (RXF 393) was > 100 µM (inactive). For the same compound, the GI50 (SF-268) was 93.5 µM (inactive), the GI50 (SF-295) was > 100 µM (inactive) and the GI50 (SF-539) was > 100 µM (inactive). The GI50 (SK-MEL-28) was > 100 µM (inactive), the GI50 (SK-MEL-2) was 71.6 µM (inactive) and the GI50 (SK-MEL-5) was 41.6 µM (inactive). The GI50 (SK-OV-3) was 67.5 µM (inactive), the GI50 (SN12C) was > 100 µM (inactive) and the GI50 (SNB-75) was > 100 µM (inactive). The GI50 (SR) was 74.1 µM (inactive), the GI50 (SW-620) was > 100 µM (inactive) and the GI50 (T47D) was 87.7 µM (inactive). The GI50 (TK-10) was > 100 µM (inactive), the GI50 (U-251) was > 100 µM (inactive) and the GI50 (UACC-257) was > 100 µM (inactive). The GI50 (UACC-62) was > 100 µM (inactive) and the GI50 (UO-31) was 23.6 µM (inactive).
